According to ChEMBL document CHEMBL1136204, “Thymidine and thymidine-5'-O-monophosphate analogues as inhibitors of Mycobacterium tuberculosis thymidylate kinase” (Bioorg Med Chem Lett, 2003):

biological target: T1, Thymidylate kinase (Mycobacterium tuberculosis, UniProt P9WKE1); assay: Inhibitory activity against thymidine monophosphate kinase (TMPK) in Mycobacterium tuberculosis
T1 sequence (P9WKE1 whole entry): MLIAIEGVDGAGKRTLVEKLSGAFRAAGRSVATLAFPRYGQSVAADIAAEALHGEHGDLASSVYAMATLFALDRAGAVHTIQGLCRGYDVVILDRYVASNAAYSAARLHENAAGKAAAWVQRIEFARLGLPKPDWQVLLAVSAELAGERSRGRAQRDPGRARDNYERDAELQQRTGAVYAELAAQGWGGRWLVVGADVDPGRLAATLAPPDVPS

Point of comparison: C[C@@H]1CC[C@H](n2cc(Br)c(=O)[nH]c2=O)O1, Ki 5 µM. Against it:
- Cc1cn([C@H]2C[C@H](O)[C@@H](CN=[N+]=[N-])O2)c(=O)[nH]c1=O — within 1.5-fold, 7 µM
- Cc1cn([C@@H]2O[C@H](CI)[C@@H](N=[N+]=[N-])[C@H]2O)c(=O)[nH]c1=O — 98-fold higher, 490 µM
- Cc1cn([C@@H]2O[C@H](C)[C@@H](N)[C@H]2O)c(=O)[nH]c1=O — 380-fold higher, 1900 µM
- Cc1cn([C@@H]2O[C@H](CO)[C@@H](O)[C@@H]2O)c(=O)[nH]c1=O — 48-fold higher, 238 µM
- Cc1cn([C@@H]2O[C@H](CO)[C@@H](O)[C@H]2F)c(=O)[nH]c1=O — 24-fold higher, 122 µM
- Cc1cn([C@@H]2O[C@H](COP(=O)(O)O)[C@@H](O)[C@H]2N)c(=O)[nH]c1=O — 24-fold higher, 120 µM
- Cc1cn([C@@H]2O[C@H](COP(=O)(O)O)[C@@H](N)[C@H]2O)c(=O)[nH]c1=O — 9-fold higher, 45 µM
- O=c1[nH]c(=O)n([C@H]2C[C@H](O)[C@@H](COP(=O)(O)O)O2)cc1-c1cccs1 — 54-fold higher, 270 µM
- O=c1[nH]c(=O)n([C@H]2C[C@H](O)[C@@H](COP(=O)(O)O)O2)cc1Cc1ccccc1 — 5.6-fold higher, 28 µM
- O=c1[nH]c(=O)n([C@H]2C[C@H](O)[C@@H](COP(=O)(O)O)O2)cc1-c1ccco1 — 28-fold higher, 140 µM
- Cc1cn([C@@H]2CO[C@H](COP(=O)(O)O)[C@@H](O)C2)c(=O)[nH]c1=O — 30-fold higher, 150 µM
- O=c1[nH]c(=O)n([C@H]2C[C@H](O)[C@@H](COP(=O)(O)O)O2)cc1CO — 22-fold higher, 110 µM
- Cc1cn([C@H]2C[C@H](O)[C@@H](CN)O2)c(=O)[nH]c1=O — 2.4-fold higher, 12 µM
- Cc1cn([C@@H]2O[C@H](CO)[C@@H](N=C(N)N)[C@H]2O)c(=O)[nH]c1=O — 28-fold higher, 140 µM
- CC(=O)NC[C@H]1O[C@@H](n2cc(C)c(=O)[nH]c2=O)C[C@@H]1O — 18-fold higher, 90 µM
- Cc1cn([C@H]2C[C@H](N)[C@@H](CO)O2)c(=O)[nH]c1=O [3-AMINO- 3-DEOXYTHYMIDINE] — 46-fold higher, 230 µM
- O=c1[nH]c(=O)n([C@@H]2O[C@H](CO)[C@@H](O)[C@H]2O)cc1F [5-FLUOROURIDINE] — 100-fold higher, 521 µM
- Cc1cn([C@H]2C[C@H](F)[C@@H](CO)O2)c(=O)[nH]c1=O [ALOVUDINE] — 5.6-fold higher, 28 µM
- C[C@H]1O[C@@H](n2cc(F)c(=O)[nH]c2=O)[C@H](O)[C@@H]1O [DOXIFLURIDINE] — 110-fold higher, 560 µM
- Cc1cn([C@H]2C[C@H](O)[C@@H](CO)O2)c(=O)[nH]c1=O [DOXRIBTIMINE] — 140-fold higher, 715 µM
- CCc1cn([C@H]2C[C@H](O)[C@@H](CO)O2)c(=O)[nH]c1=O [EDOXUDINE] — 230-fold higher, 1140 µM
- O=c1[nH]c(=O)n([C@H]2C[C@H](O)[C@@H](CO)O2)cc1C(F)(F)F [TRIFLURIDINE] — 19-fold higher, 97 µM

biological target: T1, Thymidylate kinase; assay: Inhibitory activity against thymidine monophosphate kinase (TMPKmt) in Mycobacterium tuberculosis using HPLC chromatography test

Cc1cn([C@H]2C[C@H](O)[C@@H](COP(=O)(O)OP(=O)(O)OP(=O)(O)OP(=O)(O)OP(=O)(O)OC[C@H]3O[C@@H](n4cnc5c(N)ncnc54)[C@H](O)[C@@H]3O)O2)c(=O)[nH]c1=O gave a Ki of 30 µM.
